From patent US20120189670A1, “PHARMACEUTICAL COMPOSITIONS AND FORMULATIONS INCLUDING INHIBITORS OF THE PLECKSTRIN HOMOLOGY DOMAIN AND METHODS FOR USING SAME” (priority 2009, published 2012)
Converted amounts (≈) assume the structure as drawn. Like-named read-outs stand apart in the source and are kept apart here.

Experiments:
[1] = molecular target: AKT (phospho-Ser^473-AKT) in BxPC-3 (Homo sapiens, UniProt P31749); experiment: Western blot phospho-Ser473-AKT in BxPC-3 cells; conditions: for inhibition at 10 µM: BXPC-3, read-out: % pAKT Inhibition At 10 μM
AKT (phospho-Ser^473-AKT) in BxPC-3, sequence (P31749 whole entry): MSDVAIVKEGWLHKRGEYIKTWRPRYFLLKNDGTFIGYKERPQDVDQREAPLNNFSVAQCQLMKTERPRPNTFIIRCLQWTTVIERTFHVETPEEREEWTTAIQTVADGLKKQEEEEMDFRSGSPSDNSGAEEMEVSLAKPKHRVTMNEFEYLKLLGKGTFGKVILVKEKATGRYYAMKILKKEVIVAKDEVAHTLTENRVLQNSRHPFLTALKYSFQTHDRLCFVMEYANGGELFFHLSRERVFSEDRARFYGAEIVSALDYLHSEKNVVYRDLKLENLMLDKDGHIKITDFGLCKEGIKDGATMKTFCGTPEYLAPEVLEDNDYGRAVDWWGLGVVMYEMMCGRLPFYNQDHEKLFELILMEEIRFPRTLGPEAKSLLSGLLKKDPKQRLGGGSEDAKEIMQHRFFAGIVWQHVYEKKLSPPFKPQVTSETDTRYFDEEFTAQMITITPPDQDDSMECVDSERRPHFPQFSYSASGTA

pancreatic cancer cells = experiment: Cell viability assay (Table 3); conditions: for Cell viability (IC50): viability assay, cell line not given; for IC50: Homo sapiens, Pancreatic cancer cell, read-out: Cell viability (IC50)
[2] = molecular target: AKT (phospho-Ser^473-AKT) in MiaPaCa-2 cells (Homo sapiens, UniProt P31749); experiment: Western blot phospho-Ser473-AKT in MiaPaCa-2 cells; conditions: for pAKT inhibition (IC50): MiaPaCa-2 cells
AKT (phospho-Ser^473-AKT) in MiaPaCa-2 cells, sequence (P31749 whole entry): as above

[3] = tested on: BxPC-3 pancreatic cell lines; experiment: MTT cell survival, BxPC-3; type: cell-based; conditions: Homo sapiens; BxPC-3, MTT
HT-29 lung cancer cells = experiment: MTT cell survival in HT-29 cells (Table 2); type: cell-based; conditions: Homo sapiens
[4] = molecular target: T1, AKT (phospho-Ser^473 AKT) in NIH3T3 cells (Mus musculus, UniProt P31750); experiment: Inhibition of phospho-Ser473 AKT in NIH3T3 cells; type: cell-based
T1 construct: endogenous in cells; host or cells: NIH3T3
T1 sequence (P31750 whole entry): as the sequence (P31749 whole entry) above, with S2N, A50S, T100A, K112R, E117T, K389T, G410N, H415D counted along it
Procedure: […]. […] AKT activity was measured by Western blotting using anti-phosphoSer437 AKT antibody. Downstream targets of AKT were detected also by Western blotting using specific anti-phospho antibodies and anti-actin was used as a loading control.

[5] = Cytotoxicity in HT-29 cells; type: cell-based, human; conditions: human
[6] = Metabolic stability, incubation with HT-29 cells; type: in vitro ADME; conditions: human
Text: Compound 6 was too insoluble to obtain data.

Solubility (Table 11) = type: physicochemical

| SMILES | inhibition at 10 µM [1] [%] | Cell viability (IC50) (pancreatic cancer cells) | also measured |
| --- | --- | --- | --- |
| CC(=O)Nc1ccc(S(=O)(=O)Nc2nnc(CC(=O)O)s2)cc1 [Compound 118, 2-(5-(4-Acetamidophenylsulfonamido)-1,3,4-thiadiazol-2-yl)acetic Acid] | 19 | – | – |
| CCCCCCCCc1ccc(S(=O)(=O)Nc2nncs2)cc1 [Compound 153, 4-Octyl-N-(1,3,4-thiadiazol-2-yl)benzenesulfonamide] | 10 | – | – |
| Cc1cc(C)nc(NS(=O)(=O)c2ccc(NC(=O)c3ccoc3C)cc2)n1 [Compound 446] | – | N/I | pAKT inhibition (IC50) [2]: N/I |
| CCCCCCc1ccc(S(=O)(=O)Nc2nncs2)cc1 [Compound 154, 4-Hexyl-N-(1,3,4-thiadiazol-2-yl)benzenesulfonamide] | < 10 | – | – |
| COc1cc(NS(=O)(=O)c2ccc(C(C)=O)cc2)nc(OC)n1 [Compound 450] | – | N/I | – |
| CCCCCCCCCCCCc1ccc(S(=O)(=O)Nc2nnc(C)s2)cc1 [Compound 108, 4-Dodecyl-N-(5-methyl-1,3,4-thiadiazol-2-yl)benzenesulfonamide] | 64 | – | IC50 [3]: 61 µM |
| CCCCCCCCCCCCc1ccc(S(=O)(=O)Nc2nnc(CO)s2)cc1 [Compound 128, 4-Dodecyl-N-(5-(hydroxymethyl)-1,4-thiadiazol-2-yl)benzenesulfonamide] | – | – | IC50 [3]: 37 µM |
| CCCCCCCCCCCCc1ccc(S(=O)(=O)Nc2nnc(C(=O)OCC)s2)cc1 [Compound 124E, Ethyl 5-(4-dodecylphenylsulfonamido)-1,3,4-thiadiazole-2-carboxylate] | – | – | IC50 [3]: 36 µM |
| COc1ccc(NC(=O)c2ccccc2NC(=O)c2ccccc2C(=O)O)c(OC)c1 [Compound 442] | – | N/I | pAKT inhibition (IC50) [2]: N/I |
| COc1cc(NS(=O)(=O)c2ccc(Nc3ccco3)cc2)nc(OC)n1 [Compound 444] | – | N/I | – |
| Cc1nnc(NS(=O)(=O)c2ccc(NS(=O)(=O)c3ccc4ccccc4c3)cc2)s1 [Compound 455] | – | did not exhibit cytotoxicity and N/I | – |
| Cc1onc(-c2ccccc2)c1C(=O)Nc1ccc(S(=O)(=O)Nc2ncccn2)cc1 [Compound 453] | – | N/I | pAKT inhibition (IC50) [2]: N/I |
| Nc1ccc(S(=O)(=O)Nc2nnc(S(N)(=O)=O)s2)cc1 [Compound 131, 5-(4-Aminophenylsulfonamido)-1,3,4-thiadiazole-2-sulfonamide] | 18 | – | – |
| CC(=O)Nc1ccc(S(=O)(=O)Nc2nnc(C)s2)cc1 [Compound 106, N-(4-(N-(5-Methyl-1,3,4-thiadizol-2-yl)sulfamoyl)phenyl)acetamide] | < 10 | – | – |
| O=C(O)c1ccccc1C(=O)Nc1ccccc1N1CCOCC1 [Compound 438] | – | N/I | pAKT inhibition (IC50) [2]: N/I |
| CCc1nnc(NS(=O)(=O)c2ccc(NC(C)=O)cc2)s1 [Compound 110, N-(4-(N-(5-Ethyl-1,3,4-thiadizol-2-yl)sulfamoyl)phenyl)acetamide] | 45 | – | – |
| CCOC(=O)Cc1nnc(NS(=O)(=O)c2ccc(NC(C)=O)cc2)s1 [Compound 118E, Ethyl 2-(5-(4-Acetamidophenylsulfonamido)-1,3,4-thiadiazol-2-yl)acetate] | 55 | – | – |
| CCOc1ccccc1C(=O)Nc1ccccc1C(=O)O [Compound 441] | – | N/I | IC50 [2]: 25 µM |
| CC(=O)Nc1ccc(S(=O)(=O)Nc2nnc(S(N)(=O)=O)s2)cc1 [Compound 138, N-(4-(N-(5-Sulfamoyl-1,3,4-thiadiazol-2-yl)sulfamoyl)phenyl)acetamide] | < 10 | – | – |
| Nc1ccc(S(=O)(=O)Nc2nnc(CO)s2)cc1 [Compound 125, 4-Amino-N-(5-(hydroxymethyl)-1,3,4-thiadiazol-2-yl)benzenesulfonamide] | 10 | – | – |
| CCCCCCCCCCCCc1ccc(S(=O)(=O)Nc2nnc(CC(=O)O)s2)cc1 [Compound 120, 2-(5-(4-Dodecylphenylsulfonamido)-1,3,4-thiadiazol-2-yl)acetic Acid] | – | – | IC50 [3]: > 100 µM |
| Nc1ccc(S(=O)(=O)Nc2nnc(CC(=O)O)s2)cc1 [Compound 117, 2-(5-(4-Aminophenylsulfonamido)-1,3,4-thiadiazol-2-yl)acetic Acid] | 23 | – | – |
| COc1cc(NS(=O)(=O)c2ccc(NS(=O)(=O)c3c(C)noc3C)cc2)nc(OC)n1 [Compound 415] | – | – | IC50 (HT-29 lung cancer cells): 3.1 µM |
| CCCCc1ccc(S(=O)(=O)Nc2nncs2)cc1 [Compound 155, 4-Butyl-N-(1,3,4-thiadiazol-2-yl)benzenesulfonamide] | < 10 | – | – |

| SMILES | inhibition at 10 µM [1] [%] | Cell viability (IC50) (pancreatic cancer cells) | also measured |
| --- | --- | --- | --- |
| Nc1ccc(S(=O)(=O)Nc2ccc(S(=O)(=O)Nc3nnc(S(N)(=O)=O)s3)cc2)cc1 [Compound 456] | – | N/I | – |
| O=S(=O)(Nc1nccs1)c1ccc2ccccc2c1 [Compound 437] | – | N/I | pAKT inhibition (IC50) [2]: N/I |
| COc1cccc(OC)c1C(=O)Nc1ccc(S(=O)(=O)Nc2ccccn2)cc1 [Compound 449] | – | – | IC50 (pancreatic cancer cells): 190 µM; pAKT inhibition (IC50) [2]: N/I |
| CC(=O)Nc1ccc(NS(=O)(=O)c2c(C)noc2C)cc1 [Compound 451] | – | N/I | pAKT inhibition (IC50) [2]: N/I |
| CCOC(=O)c1nnc(NS(=O)(=O)c2ccc(NC(C)=O)cc2)s1 [Compound 122E, Ethyl 5-(4-Acetamidophenylsulfonamido)-1,3,4-thiadiazole-2-carboxylate] | < 10 | – | – |
| CCCCCCCCCCCCc1ccc(S(=O)(=O)Nc2nnc(CC(=O)OCC)s2)cc1 [Compound 120E, Ethyl 2-(5-(4-Dodecylphenylsulfonamido)-1,3,4-thiadiazol-2-yl)acetate] | – | – | IC50 [3]: 70 µM |
| CCCCCCCCCCCCc1ccc(S(=O)(=O)Nc2nnc(CC)s2)cc1 [Compound 112, 4-Dodecyl-N-(5-ethyl-1,3,4-thiadiazol-2-yl)benzenesulfonamide] | – | – | IC50 [3]: 32 µM |
| O=C(Nc1ccccc1)c1ccccc1NC(=O)c1ccccc1C(=O)O [Compound 439] | – | N/I | – |
| NS(=O)(=O)c1nnc(NS(=O)(=O)c2cccc3cccnc23)s1 [Compound 345] | – | – | IC50 (HT-29 lung cancer cells): > 100 µM |
| CC(=O)Nc1ccc(S(=O)(=O)Nc2nnc(C(C)(C)C)s2)cc1 [Compound 114, N-(4-(N-(5-tert-Butyl-1,3,4-thiadiazol-2-yl)sulfamoyl)phenyl)acetamide] | 20 | – | – |
| CCc1nnc(NS(=O)(=O)c2ccc(N)cc2)s1 [Compound 109, 4-Amino-N-(5-ethyl-1,3,4-thiadiazol-2-yl)benzenesulfonamide] | 16 | – | – |
| COc1cc(NS(=O)(=O)c2ccc(NC(=O)c3ccco3)cc2)nc(OC)n1 [Compound 445] | – | N/I | – |
| CC(C)(C)c1nnc(NS(=O)(=O)c2ccc(N)cc2)s1 [Compound 113, 4-Amino-N-(5-tert-butyl-1,3,4-thiadiazol-2-yl)benzenesulfonamide] | 13 | – | – |
| Cc1nnc(NS(=O)(=O)c2ccc(N)cc2)s1 [Compound 105, 4-Amino-N-(5-methyl-1,3,4-thiadiazol-2-yl)benzenesulfonamide] | 11 | – | – |
| COc1cc(NS(=O)(=O)c2ccc(Nc3ccco3)cc2)nc(OC)n1 [Compound 454] | – | – | pAKT inhibition (IC50) [2]: N/I |
| Cc1noc(C)c1S(=O)(=O)Nc1ccc(Oc2c(Cl)cccc2Cl)nc1 [Compound 448] | – | – | IC50 (pancreatic cancer cells): 80 µM; pAKT inhibition (IC50) [2]: N/I |
| Cc1cc(C)nc(NS(=O)(=O)c2ccc(NC(=O)c3ccoc3C)cc2)n1 [Compound 447] | – | N/I | pAKT inhibition (IC50) [2]: N/I |
| CC1=NN(C(=O)c2ccccc2)C(=O)C1/N=N/c1ccc(S(=O)(=O)Nc2ncccn2)cc1 (centres unmarked) [Compound 331] | – | – | IC50 [4]: 11 µM; IC50 [5]: 14 µM; half-life ([6]; HT-29 cell culture conditions, read-out: half lives under cell culture conditions): 1 to 2 h; half-life ([6]; incubating with HT-29 cells at maximum DMEM concentration at 37° C., read-out: Metabolic half life): 1.03 h; solubility (Solubility (Table 11)): 28.3 µM (≈ 13.1 µg/mL) |
| CC(=O)Nc1ccc(S(=O)(=O)Nc2nnc(CO)s2)cc1 [Compound 126, N-(4-(N-(5-(hydroxymethyl)-1,3,4-thiadiazol-2-yl)sulfamoyl)phenyl)acetamide] | < 10 | – | – |
| CCCCCCCCCCCCc1ccc(S(=O)(=O)Nc2nnc(CCCCCN(C)c3ccc([N+](=O)[O-])c4nonc34)s2)cc1 [Compound 137, 4-Dodecyl-N-(5-(5-(methyl(7-nitrobenzo[c][1,2,5]oxadiazol-4-yl)amino)pentyl)-1,3,4-thiadiazol-2-yl)benzenesulfonamide] | – | – | AKT phosphorylation inhibition (qualitative) ([1]; BxPC-3 cells): inhibited AKT phosphorylation in a fashion similar to 104 |
| COc1cc(NS(=O)(=O)c2ccc(NC(=O)C(C)(C)C)cc2)nc(OC)n1 [Compound 452] | – | N/I | pAKT inhibition (IC50) [2]: N/I |
| CCCCCCCCCCCCc1ccc(S(=O)(=O)Nc2nnc(C(C)(C)C)s2)cc1 [Compound 116, N-(5-tert-Butyl-1,3,4-thiadiazol-2-yl)-4-dodecylbenzenesulfonamide] | 36 | – | IC50 [3]: 45 µM |
| O=C(Nc1ccccc1SCCS(=O)(=O)c1ccc(Cl)cc1)c1ccccc1Cl [Compound 436] | – | N/I | pAKT inhibition (IC50) [2]: N/I |
